Measurements as given in ChEMBL document CHEMBL3091436, “4-Bicyclic heteroaryl-piperidine derivatives as potent, orally bioavailable Stearoyl-CoA desaturase-1 (SCD1) inhibitors. Part 1: urea-based analogs” (Bioorg Med Chem Lett, 2013).
Values belong to the compound of their own block, whether it stands above or below them.

Columns and labels:
[1] = biological target: T1, Stearoyl-CoA desaturase (Homo sapiens) (UniProt O00767); assay: Inhibition of SCD1 in human A431 cells assessed as conversion of 13C-palmitic acid to 13C-palmitoleic acid after 4 hrs by LC/MS analysis; type: cell-based; settings: A-431
T1 sequence (whole entry): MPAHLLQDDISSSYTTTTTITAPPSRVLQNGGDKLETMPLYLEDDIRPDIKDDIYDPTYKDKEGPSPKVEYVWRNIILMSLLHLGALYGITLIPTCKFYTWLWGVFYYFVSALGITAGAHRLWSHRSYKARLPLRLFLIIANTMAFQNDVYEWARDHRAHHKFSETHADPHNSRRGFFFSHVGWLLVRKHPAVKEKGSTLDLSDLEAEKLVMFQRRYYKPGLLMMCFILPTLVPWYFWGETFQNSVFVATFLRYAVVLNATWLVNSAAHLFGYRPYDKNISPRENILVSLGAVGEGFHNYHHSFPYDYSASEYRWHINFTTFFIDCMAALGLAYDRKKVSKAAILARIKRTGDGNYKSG

[2] = biological target: T2, Acyl-CoA desaturase 1 (Rattus norvegicus) (UniProt P07308); assay: Inhibition of SCD1 in Sprague-Dawley rat liver microsomes using Stearoyl-[9,10-3H]-CoA as substrate assessed as [3H2O] generation at 1 uM
T2 sequence (whole entry): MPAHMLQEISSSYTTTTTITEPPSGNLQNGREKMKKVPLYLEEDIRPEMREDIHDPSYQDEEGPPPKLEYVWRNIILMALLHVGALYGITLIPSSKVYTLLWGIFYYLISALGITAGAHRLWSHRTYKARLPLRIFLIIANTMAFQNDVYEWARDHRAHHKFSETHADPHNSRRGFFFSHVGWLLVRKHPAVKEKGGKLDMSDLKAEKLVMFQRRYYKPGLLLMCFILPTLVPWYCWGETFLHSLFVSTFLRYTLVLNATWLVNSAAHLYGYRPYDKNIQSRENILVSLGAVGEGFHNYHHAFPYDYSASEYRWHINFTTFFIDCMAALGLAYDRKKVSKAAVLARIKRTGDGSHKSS

[3] = biological target: T3, Acyl-CoA desaturase 1 (Rattus norvegicus, UniProt P07308); assay: Inhibition of SCD1 in Sprague-Dawley rat liver microsomes using Stearoyl-[9,10-3H]-CoA as substrate assessed as [3H2O] generation
T3 sequence (P07308 whole entry): T2 sequence (whole entry)

[4] = tested on: Mus musculus; assay: Hepatotoxicity in DIO C57BL/6 mouse assessed as plasma AST level at 30 mg/kg, po bid after 10 days (reference value: 99 +/- 9 U/L); type: toxicity, organism-based; set-up: dose 30 mg/kg, route oral; settings: in vivo, 240 h
[5] = tested on: Mus musculus; assay: Hepatotoxicity in DIO C57BL/6 mouse assessed as plasma AST level at 10 mg/kg, po qd after 10 days (reference value: 99 +/- 9 U/L); type: toxicity, organism-based; set-up: dose 10 mg/kg, route oral; settings: in vivo, 240 h
[6] = tested on: Mus musculus; assay: Hepatotoxicity in DIO C57BL/6 mouse assessed as plasma AST level at 30 mg/kg, po qd after 10 days (reference value: 99 +/- 9 U/L); type: toxicity, organism-based; set-up: dose 30 mg/kg, route oral; settings: in vivo, 240 h
[7] = tested on: Mus musculus; assay: Hepatotoxicity in DIO C57BL/6 mouse assessed as plasma ALT level at 30 mg/kg, po bid after 10 days (reference value: 58 +/- 5 U/L); type: toxicity, organism-based; set-up: dose 30 mg/kg, route oral; settings: in vivo, 240 h
[8] = tested on: Mus musculus; assay: Hepatotoxicity in DIO C57BL/6 mouse assessed as plasma ALT level at 10 mg/kg, po qd after 10 days (reference value: 58 +/- 5 U/L); type: toxicity, organism-based; set-up: dose 10 mg/kg, route oral; settings: in vivo, 240 h
[9] = tested on: Mus musculus; assay: Hepatotoxicity in DIO C57BL/6 mouse assessed as plasma ALT level at 30 mg/kg, po qd after 10 days (reference value: 58 +/- 5 U/L); type: toxicity, organism-based; set-up: dose 30 mg/kg, route oral; settings: in vivo, 240 h
[10] = tested on: Mus musculus; assay: Antiobesity activity in po dosed DIO C57BL/6 mouse assessed as decrease in body weight gain administered as qd/bid; type: functional, organism-based
[11] = tested on: Mus musculus; assay: Antiobesity activity in DIO C57BL/6 mouse assessed as decrease in body weight gain at 30 mg/kg, po bid (reference value: 2.06 +/- 0.33 g); type: functional
[12] = tested on: Mus musculus; assay: Antiobesity activity in DIO C57BL/6 mouse assessed as decrease in body weight gain at 30 mg/kg, po qd (reference value: 2.06 +/- 0.33 g); type: functional
[13] = tested on: Mus musculus; assay: Antiobesity activity in DIO C57BL/6 mouse assessed as decrease in body weight gain at 10 mg/kg, po qd (reference value: 2.06 +/- 0.33 g); type: functional
[14] = Clearance in rat at 10 mg/kg, po; type: ADME, organism-based; set-up: dose 10 mg/kg, route oral; settings: in vivo
[15] = Oral bioavailability in rat at 10 mg/kg; type: ADME, organism-based; settings: in vivo
[16] = AUC (24 hrs) in rat at 10 mg/kg, po; type: ADME, organism-based; set-up: time < 24 hr, dose 10 mg/kg, route oral; settings: plasma
[17] = AUC (24 hrs) in DIO mouse at 30 mg/kg, po; type: ADME, organism-based; set-up: time < 24 hr, dose 30 mg/kg, route oral; settings: plasma
[18] = Volume of distribution at steady state in rat at 2 mg/kg, iv; type: ADME, organism-based; set-up: dose 2 mg/kg, route intravenous; settings: in vivo, read-out: Vdss
[19] = AUC (24 hrs) in rat at 2 mg/kg, iv; type: ADME, organism-based; set-up: time < 24 hr, dose 2 mg/kg, route intravenous; settings: plasma
[20] = Cmax in rat at 10 mg/kg, po; type: ADME, organism-based; set-up: dose 10 mg/kg, route oral; settings: in vivo
[21] = Cmax in DIO mouse at 30 mg/kg, po; type: ADME, organism-based; set-up: dose 30 mg/kg, route oral; settings: in vivo
[22] = Half life in DIO mouse at 30 mg/kg, po; type: ADME, organism-based; set-up: dose 30 mg/kg, route oral; settings: in vivo
[23] = Cmax in rat at 2 mg/kg, iv; type: ADME, organism-based; set-up: dose 2 mg/kg, route intravenous; settings: in vivo
[24] = Half life in rat at 10 mg/kg, po; type: ADME, organism-based; set-up: dose 10 mg/kg, route oral; settings: in vivo
[25] = Half life in rat at 2 mg/kg, iv; type: ADME, organism-based; set-up: dose 2 mg/kg, route intravenous; settings: in vivo

Structure (SMILES): CNC(=O)c1cccc(NC(=O)N2CCC(N3C(=O)Cc4ccccc43)CC2)c1
inhibition [2]: 7%

Structure (SMILES): Cc1csc(NC(=O)N2CCC(c3noc4ccc(F)cc34)CC2)n1
Activity [4]: 102 U/L
Activity [5]: 89 U/L
Activity [6]: 93 U/L
Activity [7]: 41 U/L
Activity [8]: 57 U/L
Activity [9]: 68 U/L
Activity [10]: Dose-dependent effect
Activity [11]: -0.69 g
Activity [12]: 0.01 g
Activity [13]: 0 g
CL/F [14]: 0.5 mL/min/kg
bioavailability [15]: 36.9%
AUC at 24 h [16]: 118 µg·h/mL
AUC at 24 h [17]: 169 µg·h/mL
Vd [18]: 0.19 L/kg
AUC at 24 h [19]: 49.8 µg·h/mL
Cmax [20]: 8800 ng/mL
Cmax [21]: 14900 ng/mL
half-life [22]: 3.1 h
Cmax [23]: 9200 ng/mL
half-life [24]: 6.3 h
half-life [25]: 3.8 h
IC50 [1]: 54 nM

Structure (SMILES): O=C1NCCn2nc(NC(=O)N3CCC(N4CCc5ccc(F)cc54)CC3)cc21
IC50 [1]: 30 nM
IC50 [3]: 18 nM

Structure (SMILES): CNC(=O)c1csc(NC(=O)N2CCC(N3CCc4ccc(F)cc43)CC2)n1
inhibition [2]: 20%

Structure (SMILES): Cc1csc(NC(=O)N2CCC(N3CCc4ccc(F)cc43)CC2)n1
IC50 [1]: 21 nM

Structure (SMILES): O=C(Nc1ncc(CCO)s1)N1CCC(N2CCc3ccc(F)cc32)CC1
IC50 [1]: 6 nM

Structure (SMILES): CNC(=O)c1cccc(NC(=O)N2CCC(c3c[nH]c4ccccc34)CC2)c1
inhibition [2]: 15%

Structure (SMILES): Cc1csc(NC(=O)N2CCC(n3ccc4ccccc43)CC2)n1
IC50 [3]: 538 nM

Structure (SMILES): Cc1csc(NC(=O)N2CCC(N3CCc4ccccc43)CC2)n1
IC50 [3]: 153 nM

Structure (SMILES): O=C(Nc1nc(CCO)cs1)N1CCC(N2CCc3ccc(F)cc32)CC1
IC50 [1]: 18 nM

Now from value to compound:

IC50 [1]: 17 nM
Structure (SMILES): O=C(Nc1nc2c(s1)COCC2)N1CCC(N2CCc3ccc(F)cc32)CC1

IC50 [1]: 154 nM
Structure (SMILES): O=C(Nc1ncc(CO)s1)N1CCC(N2CCc3ccc(F)cc32)CC1

IC50 [1]: 16 nM
Structure (SMILES): O=C(Nc1nc2c(s1)CNCC2)N1CCC(N2CCc3ccc(F)cc32)CC1

inhibition [2]: 46%
Structure (SMILES): CC(=O)N1CCc2nc(NC(=O)N3CCC(N4CCc5ccc(F)cc54)CC3)sc2C1

IC50 [1]: 1 nM
IC50 [3]: 14 nM
Structure (SMILES): O=C(Nc1nc2c(s1)CC(O)CC2)N1CCC(N2CCc3ccc(F)cc32)CC1 (stereo not given)

IC50 [1]: 113 nM
Structure (SMILES): O=C(CO)N1CCc2nc(NC(=O)N3CCC(N4CCc5ccc(F)cc54)CC3)sc2C1

IC50 [1]: 108 nM
Structure (SMILES): Cc1cnc(NC(=O)N2CCC(N3CCc4ccc(F)cc43)CC2)s1

IC50 [1]: 206 nM
Structure (SMILES): CNC(=O)c1cnc(NC(=O)N2CCC(N3CCc4ccc(F)cc43)CC2)s1

IC50 [1]: 42 nM
Structure (SMILES): O=C(Nc1nc(CO)cs1)N1CCC(N2CCc3ccc(F)cc32)CC1

IC50 [1]: 49 nM
Structure (SMILES): NC(=O)c1cnc(NC(=O)N2CCC(N3CCc4ccc(F)cc43)CC2)s1

IC50 [1]: 76 nM
Structure (SMILES): O=C(Nc1nc2c(s1)CCCC2)N1CCC(N2CCc3ccc(F)cc32)CC1
